# Assay results: ChEMBL document CHEMBL2440076, “New triarylpyrazoles as broad-spectrum anticancer agents: design, synthesis, and biological evaluation” (Eur J Med Chem, 2013)
# Tests used:
# Type in all cases: functional
# [1] = system: SN12C; assay: Growth inhibition of human SN12C cells assessed as cell growth at 3X10'-5 M after 48 hrs by sulforhodamine B assay; conditions: read-out: Activity
# [2] = system: UACC-257; assay: Growth inhibition of human UACC257 cells assessed as cell growth at 3X10'-7 M after 48 hrs by sulforhodamine B assay; conditions: UACC-257, 48 h, read-out: Activity
# [3] = system: CAKI-1; assay: Growth inhibition of human CAKI-1 cells assessed as cell growth at 3X10'-5 M after 48 hrs by sulforhodamine B assay; conditions: CAKI-1, 48 h, read-out: Activity
# [4] = system: UO-31; assay: Growth inhibition of human UO31 cells assessed as cell growth at 3X10'-5 M after 48 hrs by sulforhodamine B assay; conditions: UO-31, 48 h, read-out: Activity
# [5] = system: NCI-H460; assay: Growth inhibition of human NCI-H460 cells assessed as cell growth at 3X10'-5 M after 48 hrs by sulforhodamine B assay; conditions: NCI-H460, 48 h, read-out: Activity
# [6] = system: SR; assay: Growth inhibition of human SR cells assessed as cell growth at 3X10'-7 M after 48 hrs by sulforhodamine B assay; conditions: read-out: Activity
# [7] = Growth inhibition of human NCI-ADR-RES cells assessed as cell growth at 3X10'-8 M after 48 hrs by sulforhodamine B assay; conditions: read-out: Activity
# [8] = system: KM12; assay: Growth inhibition of human KM12 cells assessed as cell growth at 3X10'-8 M after 48 hrs by sulforhodamine B assay; conditions: KM12, 48 h, read-out: Activity
# [9] = system: OVCAR-8; assay: Growth inhibition of human OVCAR8 cells assessed as cell growth at 3X10'-5 M after 48 hrs by sulforhodamine B assay; conditions: OVCAR-8, 48 h, read-out: Activity
# [10] = system: SW-620; assay: Growth inhibition of human SW620 cells assessed as cell growth at 3X10'-6 M after 48 hrs by sulforhodamine B assay; conditions: SW-620, 48 h, read-out: Activity
# [11] = system: RPMI-8226; assay: Growth inhibition of human RPMI8226 cells assessed as cell growth at 3X10'-7 M after 48 hrs by sulforhodamine B assay; conditions: RPMI-8226, 48 h, read-out: Activity
# [12] = system: K562; assay: Growth inhibition of human K562 cells assessed as cell growth at 3X10'-8 M after 48 hrs by sulforhodamine B assay; conditions: K562, 48 h, read-out: Activity
# [13] = system: MCF7; assay: Growth inhibition of human MCF7 cells assessed as cell growth at 3X10'-8 M after 48 hrs by sulforhodamine B assay; conditions: MCF7, 48 h, read-out: Activity
# [14] = system: HT-29; assay: Growth inhibition of human HT-29 cells assessed as cell growth at 3X10'-6 M after 48 hrs by sulforhodamine B assay; conditions: HT-29, 48 h, read-out: Activity
# [15] = system: NCI-H23; assay: Growth inhibition of human NCI-H23 cells assessed as cell growth at 3X10'-9 M after 48 hrs by sulforhodamine B assay; conditions: NCI-H23, 48 h, read-out: Activity
# [16] = system: A549; assay: Growth inhibition of human A549/ATCC cells assessed as cell growth at 3X10'-7 M after 48 hrs by sulforhodamine B assay; conditions: A549, 48 h, read-out: Activity
# [17] = system: SF-268; assay: Growth inhibition of human SF268 cells assessed as cell growth at 3X10'-9 M after 48 hrs by sulforhodamine B assay; conditions: SF-268, 48 h, read-out: Activity
# [18] = system: PC-3; assay: Growth inhibition of human PC3 cells assessed as cell growth at 3X10'-5 M after 48 hrs by sulforhodamine B assay; conditions: PC-3, 48 h, read-out: Activity
# [19] = system: OVCAR-8; assay: Growth inhibition of human OVCAR8 cells assessed as cell growth at 3X10'-6 M after 48 hrs by sulforhodamine B assay; conditions: OVCAR-8, 48 h, read-out: Activity
# [20] = Growth inhibition of human Hs 578T cells assessed as cell growth at 3X10'-5 M after 48 hrs by sulforhodamine B assay; conditions: read-out: Activity
# [21] = system: KM12; assay: Growth inhibition of human KM12 cells assessed as cell growth at 3X10'-5 M after 48 hrs by sulforhodamine B assay; conditions: KM12, 48 h, read-out: Activity
# [22] = system: UO-31; assay: Growth inhibition of human UO31 cells assessed as cell growth at 3X10'-8 M after 48 hrs by sulforhodamine B assay; conditions: UO-31, 48 h, read-out: Activity
# [23] = system: Malme-3M; assay: Growth inhibition of human MALME-3M cells assessed as cell growth at 3X10'-6 M after 48 hrs by sulforhodamine B assay; conditions: read-out: Activity
# [24] = system: NCI-H522; assay: Growth inhibition of human NCI-H522 cells assessed as cell growth at 3X10'-9 M after 48 hrs by sulforhodamine B assay; conditions: NCI-H522, 48 h, read-out: Activity
# [25] = system: UACC-62; assay: Growth inhibition of human UACC62 cells assessed as cell growth at 3X10'-6 M after 48 hrs by sulforhodamine B assay; conditions: UACC-62, 48 h, read-out: Activity
# [26] = system: UACC-257; assay: Growth inhibition of human UACC257 cells assessed as cell growth at 3X10'-5 M after 48 hrs by sulforhodamine B assay; conditions: UACC-257, 48 h, read-out: Activity
# [27] = system: SN12C; assay: Growth inhibition of human SN12C cells assessed as cell growth at 3X10'-8 M after 48 hrs by sulforhodamine B assay; conditions: read-out: Activity
# [28] = system: UACC-62; assay: Growth inhibition of human UACC62 cells assessed as cell growth at 3X10'-9 M after 48 hrs by sulforhodamine B assay; conditions: UACC-62, 48 h, read-out: Activity
# [29] = system: SF-295; assay: Growth inhibition of human SF295 cells assessed as cell growth at 3X10'-9 M after 48 hrs by sulforhodamine B assay; conditions: SF-295, 48 h, read-out: Activity
# [30] = system: SNB-75; assay: Growth inhibition of human SNB75 cells assessed as cell growth at 3X10'-7 M after 48 hrs by sulforhodamine B assay; conditions: SNB-75, 48 h, read-out: Activity
# [31] = system: SF-295; assay: Growth inhibition of human SF295 cells assessed as cell growth at 3X10'-8 M after 48 hrs by sulforhodamine B assay; conditions: SF-295, 48 h, read-out: Activity
# [32] = system: UO-31; assay: Growth inhibition of human UO31 cells assessed as cell growth at 3X10'-7 M after 48 hrs by sulforhodamine B assay; conditions: UO-31, 48 h, read-out: Activity
# [33] = system: SF-268; assay: Growth inhibition of human SF268 cells assessed as cell growth at 3X10'-7 M after 48 hrs by sulforhodamine B assay; conditions: SF-268, 48 h, read-out: Activity
# [34] = system: SK-MEL-28; assay: Growth inhibition of human SK-MEL-28 cells assessed as cell growth at 3X10'-9 M after 48 hrs by sulforhodamine B assay; conditions: SK-MEL-28, 48 h, read-out: Activity
# [35] = system: DU-145; assay: Growth inhibition of human DU145 cells assessed as cell growth at 3X10'-5 M after 48 hrs by sulforhodamine B assay; conditions: DU-145, 48 h, read-out: Activity
# [36] = system: LOX IMVI; assay: Growth inhibition of human LOXIMVI cells assessed as cell growth at 3X10'-8 M after 48 hrs by sulforhodamine B assay; conditions: read-out: Activity
# [37] = system: SK-OV-3; assay: Growth inhibition of human SKOV3 cells assessed as cell growth at 3X10'-9 M after 48 hrs by sulforhodamine B assay; conditions: SK-OV-3, 48 h, read-out: Activity
structure (smiles),measurement,setting,value
COc1cc(-c2nn(-c3cccc(NC(=O)c4ccc(Cl)c(C(F)(F)F)c4)c3)cc2-c2ccncc2)ccc1Cl,growth at 30 µM,[1],35%
same,growth at 0.3 µM,[2],90%
same,growth at 30 µM,[3],12%
same,growth at 30 µM,[4],11%
same,growth at 30 µM,[5],7%
same,growth at 0.3 µM,[6],82%
same,growth at 0.03 µM,[7],94%
same,growth at 0.03 µM,[8],96%
same,growth at 30 µM,[9],15%
same,growth at 3 µM,[10],55%
same,growth at 0.3 µM,[11],94%
same,growth at 0.03 µM,[12],100%
same,growth at 0.03 µM,[13],93%
same,growth at 3 µM,[14],51%
same,growth at 0.003 µM,[15],93%
same,growth at 0.3 µM,[16],92%
same,growth at 0.003 µM,[17],94%
same,growth at 30 µM,[18],11%
same,growth at 3 µM,[19],50%
same,growth at 30 µM,[20],5%
same,growth at 30 µM,[21],17%
same,growth at 0.03 µM,[22],80%
same,growth at 3 µM,[23],20%
same,growth at 0.003 µM,[24],89%
same,growth at 3 µM,[25],40%
same,growth at 30 µM,[26],32%
same,growth at 0.03 µM,[27],99%
same,growth at 0.003 µM,[28],99%
same,growth at 0.003 µM,[29],92%
same,growth at 0.3 µM,[30],77%
same,growth at 0.03 µM,[31],94%
same,growth at 0.3 µM,[32],47%
same,growth at 0.3 µM,[33],89%
same,growth at 0.003 µM,[34],99%
same,growth at 30 µM,[35],10%
same,growth at 0.03 µM,[36],91%
same,growth at 0.003 µM,[37],100%
